# Source: patent US4489091A, “Antilipemic and anti-inflammatory compositions containing sulfonate derivatives” (Taiho Pharmaceutical Company Limited, priority 1980, dated 1984)
# Like-named read-outs stand apart in the source and are kept apart here.
# Tests used:
# esterase = experiment: Esterase inhibiting activity; format: biochemical; settings: rat liver microsome esterase, methyl butyrate substrate, pH 8.0, 37° C., 60 minutes; read-out: IC50 for esterases
# Experimental: A 10 micromole quantity of methyl butyrate in a 50% ethanol solution is added as a substrate to a specified amount of buffer solution containing 0.1 mole of trishydrochloric acid (pH 8.0). To the mixture is further added a 50% ethanol solution of the compound of the invention, immediately followed by addition of an esterase solution prepared from a purified microsome fraction of the liver of a rat (adjusted to hydrolyze 9 micromoles of methyl butyrate at 37° C. in one hour) as an enzyme solution. The mixture is reacted at 37° C. for 60 minutes.
# After the reaction, alkaline hydroxylamine is added to the mixture to form a hydroxamic acid derivative of methyl butyrate, and a ferric salt is added to the derivative. The resulting red color is colorimetrically determined (at a wavelength of 540 nm) to determine the amount of remaining methyl butyrate. The esterase inhibiting ratios of the present compound at least at three concentrations are plotted as ordinate, and the logarithms of the concentrations as abscissa to obtain a line, which gives the 50% inhibition concentration (IC50).
# chymotripsin = chymotripsin (Bos taurus, UniProt P00766); experiment: Chymotripsin inhibiting activity; format: biochemical; settings: 0.5 h; compound 1×10^-4 mole, ATEE substrate, pH 8.0, 37° C.; read-out: Percent chymotripsin inhibition
# Experimental: Chymotripsin (0.1 unit) serving as an enzyme solution is added to a specified quantity of buffer solution containing 0.1 mole of trishydrochloric acid (pH 8.0). To the mixture is further added a 50% ethanol solution of the compound of the invention so that the resulting mixture contains the compound in a concentration of 1×10^-4 mole. The mixture is reacted at 37° C. for 20 minutes.
# On completion of the reaction, 10 micromoles of N-acetyl-L-thyrosine ethyl ester (ATEE) serving as a substrate is added to the mixture, and the resulting mixture is reacted at 37° C. for 30 minutes.
# After the completion of the reaction, the amount of remaining ATEE is determined by the same hydroxamic acid method as above. The percent chymotripsin inhibition is given by [formula] wherein A is the amount of hydrolyzed esters in the reaction system not containing the compound of the invention, and B is the amount of hydrolyzed esters in the reaction system containing the present compound.
# triglycerides = experiment: Antilipemic effect: percent triglycerides inhibition in plasma of rats given an olive oil-cholesterol mixture; format: in vivo, male Wistar rats; settings: plasma 2 hours after dosing, Wistar rat; for inhibition in vivo at 100 mg/kg: oral 100 mg/kg, read-out: Anti-lipemic effect, TG (percent triglycerides inhibition); for inhibition in vivo at 200 mg/kg: oral 200 mg/kg (asterisked values), read-out: Anti-lipemic effect, TG (percent triglycerides inhibition), asterisked
# Summary of the method: (§1)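 Male Wistar rats, seven weeks old, 200 to 220 g, 5 per group, dosed orally at 100 or 200 mg/kg in olive oil-cholesterol mixture (15% cholesterol) at 10 ml/kg. Plasma triglycerides measured at 2 hours, total cholesterol at 8 hours, by enzymatic kits; percent inhibition calculated relative to vehicle control and untreated normal groups.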
# cholesterol = experiment: Antilipemic effect: percent total cholesterol inhibition in plasma of rats given an olive oil-cholesterol mixture; format: in vivo, male Wistar rats; settings: plasma 8 hours after dosing, Wistar rat; for inhibition in vivo at 100 mg/kg: oral 100 mg/kg, read-out: Anti-lipemic effect, CS (percent cholesterol inhibition); for Anti-lipemic effect, CS (percent cholesterol inhibition), asterisked: oral 200 mg/kg (asterisked values)
# Summary of the method: as §1
# Acute toxicity = settings: rat, in vivo
# Text: Six-week-old male Wistar rats weighing 180 to 200 g are used, 5 rats in each group. Each compound of the invention is suspended in a 30% aqueous solution of polyethylene glycol 6000 and orally given to the rat at the dosage shown in Table 2. The animals are checked for poisoning, body weight and survival to determine the LD50 value.
SMILES,IC50 (esterase),inhibition at 100 µM (chymotripsin),inhibition in vivo at 100 mg/kg (triglycerides),inhibition in vivo at 100 mg/kg (cholesterol),LD50 (Acute toxicity; po),inhibition in vivo at 200 mg/kg (triglycerides),"Anti-lipemic effect, CS (percent cholesterol inhibition), asterisked (cholesterol)","LD50 (Acute toxicity; oral, six-week-old male Wistar rats, suspended in 30% aqueous polyethylene glycol 6000, read-out: LD50)"
CCCCCCC(=O)COS(=O)(=O)c1ccc(C)cc1 [Compound 19],3400 nM,100%,78%,41%,> 3000 mg/kg,,,
CCCCCCC(=O)COS(=O)(=O)c1ccccc1C [Compound 31],17 nM,100%,61%,31%,> 2000 mg/kg,,,
CCCCC(CC)C(=O)COS(=O)(=O)c1ccccc1C (stereo not shown) [Compound 32],350 nM,0.4%,70%,43%,> 3000 mg/kg,,,
CCCCCCCC(=O)COS(=O)(=O)c1ccc(OC)cc1 [Compound 37],150 nM,91%,62%,62%,> 3000 mg/kg,,,
CCCCCCCC(=O)COS(=O)(=O)c1ccc(OCC)cc1 [Compound 47],590 nM,67%,,60%,> 4000 mg/kg,82%,,
CCCCC(CC)C(=O)COS(=O)(=O)c1ccc(OCC)cc1 (stereo not shown) [Compound 50],21000 nM,31%,80%,94%,> 4500 mg/kg,,,
CCCCCCCC(=O)COS(=O)(=O)c1ccc(OCCCC)cc1 [Compound 56],1000 nM,50%,,,> 3000 mg/kg,64%,42%,
"CCCC(=O)COS(=O)(=O)c1c(C)cc(C)cc1C [Compound 73, 2-oxopentyl-2,4,6-trimethylbenzenesulfonate]",1000 nM,13%,92%,90%,,,,> 3000 mg/kg
CCCCCCCCC(=O)COS(=O)(=O)c1c(C)cc(C)cc1C [Compound 78],0.63 nM,72%,56%,61%,> 4000 mg/kg,,,
C=CCCC(=O)COS(=O)(=O)c1c(C)cc(C)cc1C [Compound 86],120 nM,14%,79%,66%,> 3000 mg/kg,,,
CCCCC(=O)COS(=O)(=O)c1c(C)cc(C)c(C)c1C [Compound 96],0.16 nM,12%,68%,71%,> 3000 mg/kg,,,
CCCCCCCCC(=O)COS(=O)(=O)c1c(C)cc(C)c(C)c1C [Compound 98],0.027 nM,26%,,,> 4000 mg/kg,70%,71%,
CCCC(=O)COS(=O)(=O)c1cc(C)ccc1C [Compound 111],280 nM,4%,73%,51%,> 2000 mg/kg,,,
CCCC(=O)COS(=O)(=O)c1cc(C)c(C)cc1C [Compound 116],1300 nM,0%,90%,82%,> 2000 mg/kg,,,
CCCCC(CCCC)C(=O)COS(=O)(=O)c1ccc(C)cc1 [Compound 129],7000 nM,30%,66%,45%,> 3000 mg/kg,,,
CCCCCC(C)C(=O)COS(=O)(=O)c1ccc(C)cc1 (stereo not shown) [Compound 130],4000 nM,52%,72%,51%,> 3000 mg/kg,,,
CCCC(CC)C(=O)COS(=O)(=O)c1ccc(OCC)cc1 (stereo not shown) [Compound 134],560000 nM,2%,82%,65%,> 4500 mg/kg,,,
CCCC(CCC)C(=O)COS(=O)(=O)c1ccc(OCC)cc1 [Compound 135],56000 nM,10%,91%,92%,> 4500 mg/kg,,,
CCOc1ccc(S(=O)(=O)OCC(=O)CC(CC)CC)cc1 [Compound 137],10000 nM,14%,81%,72%,> 4000 mg/kg,,,
CCOc1ccc(S(=O)(=O)OCC(=O)CCC(C)C)cc1 [Compound 138],4200 nM,67%,95%,90%,> 2000 mg/kg,,,
CCOc1ccc(S(=O)(=O)OCC(=O)CCCC(C)C)cc1 [Compound 145],3300 nM,87%,61%,62%,> 3000 mg/kg,,,
Cc1cc(C)c(S(=O)(=O)OCC(=O)CC(C)C)c(C)c1 [Compound 149],1000 nM,7%,81%,67%,> 3000 mg/kg,,,
CCCC(CC)C(=O)COS(=O)(=O)c1c(C)cc(C)cc1C (stereo not shown) [Compound 151],32000 nM,8%,83%,77%,> 3000 mg/kg,,,
CCC(C)CC(=O)COS(=O)(=O)c1c(C)cc(C)cc1C (stereo not shown) [Compound 153],640 nM,9%,82%,83%,> 4000 mg/kg,,,
CCCC(C)CC(=O)COS(=O)(=O)c1c(C)cc(C)cc1C (stereo not shown) [Compound 158],400 nM,17%,74%,70%,> 4000 mg/kg,,,
CCCCCC(C)C(=O)COS(=O)(=O)c1c(C)cc(C)cc1C (stereo not shown) [Compound 162],2000 nM,32%,75%,77%,> 4000 mg/kg,,,
